ChEMBL document CHEMBL5380872, “Development of a Potent Nurr1 Agonist Tool for In Vivo Applications” (J Med Chem, 2023)

What was measured:
in vivo = conditions: Sprague-Dawley, rat, po, 5 mg/kg
[1] = biological target: T1, Nuclear receptor subfamily 4immunitygroup A member 1 (Homo sapiens, UniProt P22736); assay: cell-based
Description: (§1) Agonist activity at Nur77 (unknown origin) by Gal4 hybrid reporter gene assay

[2] = biological target: Dihydroorotate dehydrogenase (quinone), mitochondrial (Rattus norvegicus, UniProt Q63707)
Description: Inhibition of rat recombinant DHODH by colorimetric assay

[3] = rat, in vivo, po, 5 mg/kg, 8 h
Vitamin D3 receptor = biological target: T2, Vitamin D3 receptor (Homo sapiens, UniProt P11473)
T2 sequence (P11473 whole entry): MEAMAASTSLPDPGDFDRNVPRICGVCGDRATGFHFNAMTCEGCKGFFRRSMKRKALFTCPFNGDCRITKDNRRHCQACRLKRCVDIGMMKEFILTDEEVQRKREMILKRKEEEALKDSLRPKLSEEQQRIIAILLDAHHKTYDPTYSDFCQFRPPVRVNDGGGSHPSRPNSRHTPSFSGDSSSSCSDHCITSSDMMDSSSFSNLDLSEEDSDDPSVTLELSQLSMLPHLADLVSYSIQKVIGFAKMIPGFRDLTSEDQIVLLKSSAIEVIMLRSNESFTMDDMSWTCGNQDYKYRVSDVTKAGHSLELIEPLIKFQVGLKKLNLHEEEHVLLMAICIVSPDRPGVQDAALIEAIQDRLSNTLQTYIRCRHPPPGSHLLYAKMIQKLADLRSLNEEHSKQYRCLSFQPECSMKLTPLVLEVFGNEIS
Description: Agonist activity at human VDR-LBD transfected in HEK293T cells co-transfected with pFR-Luc/pRL-SV40 assessed as transfection efficiency by measuring luciferase activity measured after 16 hrs by Gal4 hybrid reporter gene assay

[4] = biological target: Nuclear receptor subfamily 4 group A member 3 (Homo sapiens, UniProt Q92570)
Chain of Nuclear receptor subfamily 4 group A member 3 (Q92570 whole entry): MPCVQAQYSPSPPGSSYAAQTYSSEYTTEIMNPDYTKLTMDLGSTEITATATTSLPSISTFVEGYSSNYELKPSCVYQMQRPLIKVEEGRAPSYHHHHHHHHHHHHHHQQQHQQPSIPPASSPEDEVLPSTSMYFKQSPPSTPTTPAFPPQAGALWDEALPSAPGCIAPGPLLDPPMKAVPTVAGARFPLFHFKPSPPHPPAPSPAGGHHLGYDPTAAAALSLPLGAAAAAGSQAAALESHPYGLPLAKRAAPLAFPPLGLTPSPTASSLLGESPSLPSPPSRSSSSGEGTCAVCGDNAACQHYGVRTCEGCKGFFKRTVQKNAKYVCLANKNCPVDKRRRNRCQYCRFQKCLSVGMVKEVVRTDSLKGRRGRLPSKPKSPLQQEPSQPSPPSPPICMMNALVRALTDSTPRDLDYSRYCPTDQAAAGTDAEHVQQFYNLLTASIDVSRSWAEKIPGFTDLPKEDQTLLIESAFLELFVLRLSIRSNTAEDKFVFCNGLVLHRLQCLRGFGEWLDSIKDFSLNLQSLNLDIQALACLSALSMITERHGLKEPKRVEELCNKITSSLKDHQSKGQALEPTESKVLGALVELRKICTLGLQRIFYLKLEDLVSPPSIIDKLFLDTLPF
Description: Agonist activity at NOR1 (unknown origin) by Gal4 hybrid reporter gene assay

Bile acid receptor = biological target: T3, Bile acid receptor (Homo sapiens, UniProt Q96RI1)
T3 sequence (Q96RI1 whole entry): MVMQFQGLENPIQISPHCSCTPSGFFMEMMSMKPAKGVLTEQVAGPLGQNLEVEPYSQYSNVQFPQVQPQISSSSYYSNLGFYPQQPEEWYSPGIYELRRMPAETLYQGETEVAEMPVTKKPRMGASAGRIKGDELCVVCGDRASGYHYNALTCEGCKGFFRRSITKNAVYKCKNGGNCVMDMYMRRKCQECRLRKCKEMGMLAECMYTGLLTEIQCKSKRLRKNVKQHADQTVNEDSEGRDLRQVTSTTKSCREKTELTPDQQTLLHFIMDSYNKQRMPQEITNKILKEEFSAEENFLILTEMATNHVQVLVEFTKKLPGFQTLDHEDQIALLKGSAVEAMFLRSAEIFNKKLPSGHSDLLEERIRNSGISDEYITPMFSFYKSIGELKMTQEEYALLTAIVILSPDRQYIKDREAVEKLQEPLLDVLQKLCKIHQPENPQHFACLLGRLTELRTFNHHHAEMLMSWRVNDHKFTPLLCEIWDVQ
Description: Agonist activity at human FXR-LBD transfected in HEK293T cells co-transfected with pFR-Luc/pRL-SV40 assessed as transfection efficiency by measuring luciferase activity measured after 16 hrs by Gal4 hybrid reporter gene assay

[5] = biological target: T1, Nuclear receptor subfamily 4immunitygroup A member 1
Description: as §1

[6] = biological target: T4, Peroxisome proliferator-activated receptor gamma (Homo sapiens, UniProt P37231)
T4 sequence (P37231 whole entry): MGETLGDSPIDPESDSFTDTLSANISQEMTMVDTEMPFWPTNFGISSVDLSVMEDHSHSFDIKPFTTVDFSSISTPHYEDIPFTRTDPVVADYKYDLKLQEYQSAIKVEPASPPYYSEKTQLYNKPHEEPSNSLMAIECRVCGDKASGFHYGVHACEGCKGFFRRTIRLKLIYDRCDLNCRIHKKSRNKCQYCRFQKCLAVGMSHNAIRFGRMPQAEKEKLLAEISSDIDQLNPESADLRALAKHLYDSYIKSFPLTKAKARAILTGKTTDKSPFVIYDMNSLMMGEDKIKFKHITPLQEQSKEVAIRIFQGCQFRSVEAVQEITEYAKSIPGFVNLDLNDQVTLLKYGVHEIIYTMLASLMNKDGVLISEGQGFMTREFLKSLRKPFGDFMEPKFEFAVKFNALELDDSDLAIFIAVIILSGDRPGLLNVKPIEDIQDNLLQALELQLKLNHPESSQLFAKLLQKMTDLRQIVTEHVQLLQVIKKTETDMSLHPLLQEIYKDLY
Description: Agonist activity at human PPARgamma-LBD transfected in HEK293T cells co-transfected with pFR-Luc/pRL-SV40 assessed as transfection efficiency by measuring luciferase activity measured after 16 hrs by Gal4 hybrid reporter gene assay

[7] = biological target: T5, Peroxisome proliferator-activated receptor alpha (Homo sapiens, UniProt Q07869)
T5 sequence (Q07869 whole entry): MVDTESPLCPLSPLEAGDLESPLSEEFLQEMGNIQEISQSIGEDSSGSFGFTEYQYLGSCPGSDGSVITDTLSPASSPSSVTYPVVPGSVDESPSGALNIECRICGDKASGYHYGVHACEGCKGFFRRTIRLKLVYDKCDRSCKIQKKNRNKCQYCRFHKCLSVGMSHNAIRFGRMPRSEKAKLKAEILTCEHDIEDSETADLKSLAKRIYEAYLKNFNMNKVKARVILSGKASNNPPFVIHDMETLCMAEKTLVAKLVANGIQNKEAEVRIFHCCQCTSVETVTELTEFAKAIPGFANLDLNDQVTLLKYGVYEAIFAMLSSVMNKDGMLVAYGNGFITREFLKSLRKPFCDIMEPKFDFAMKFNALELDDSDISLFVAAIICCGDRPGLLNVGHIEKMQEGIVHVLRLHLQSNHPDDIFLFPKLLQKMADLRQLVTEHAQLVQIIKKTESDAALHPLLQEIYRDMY
Description: Agonist activity at human PPARalpha-LBD transfected in HEK293T cells co-transfected with pFR-Luc/pRL-SV40 assessed as transfection efficiency by measuring luciferase activity measured after 16 hrs by Gal4 hybrid reporter gene assay

[8] = biological target: T6, Retinoic acid receptor RXR-alpha (Homo sapiens, UniProt P19793)
T6 sequence (P19793 whole entry): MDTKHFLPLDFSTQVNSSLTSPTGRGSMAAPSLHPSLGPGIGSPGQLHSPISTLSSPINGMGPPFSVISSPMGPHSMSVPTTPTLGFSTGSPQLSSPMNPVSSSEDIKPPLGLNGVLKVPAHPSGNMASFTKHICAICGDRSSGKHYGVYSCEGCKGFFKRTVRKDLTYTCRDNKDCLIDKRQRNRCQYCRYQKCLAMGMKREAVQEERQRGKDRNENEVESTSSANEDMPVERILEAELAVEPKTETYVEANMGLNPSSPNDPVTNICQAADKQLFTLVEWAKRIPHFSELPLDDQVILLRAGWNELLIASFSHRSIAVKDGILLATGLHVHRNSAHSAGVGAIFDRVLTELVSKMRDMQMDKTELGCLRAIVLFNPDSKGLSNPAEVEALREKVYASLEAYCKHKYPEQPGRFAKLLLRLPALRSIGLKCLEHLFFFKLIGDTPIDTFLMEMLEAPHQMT
Description: Agonist activity at human RXRalpha-LBD transfected in HEK293T cells co-transfected with pFR-Luc/pRL-SV40 assessed as transfection efficiency by measuring luciferase activity measured after 16 hrs by Gal4 hybrid reporter gene assay

[9] = biological target: T7, Thyroid hormone receptor alpha (Homo sapiens, UniProt P10827)
T7 sequence (P10827 whole entry): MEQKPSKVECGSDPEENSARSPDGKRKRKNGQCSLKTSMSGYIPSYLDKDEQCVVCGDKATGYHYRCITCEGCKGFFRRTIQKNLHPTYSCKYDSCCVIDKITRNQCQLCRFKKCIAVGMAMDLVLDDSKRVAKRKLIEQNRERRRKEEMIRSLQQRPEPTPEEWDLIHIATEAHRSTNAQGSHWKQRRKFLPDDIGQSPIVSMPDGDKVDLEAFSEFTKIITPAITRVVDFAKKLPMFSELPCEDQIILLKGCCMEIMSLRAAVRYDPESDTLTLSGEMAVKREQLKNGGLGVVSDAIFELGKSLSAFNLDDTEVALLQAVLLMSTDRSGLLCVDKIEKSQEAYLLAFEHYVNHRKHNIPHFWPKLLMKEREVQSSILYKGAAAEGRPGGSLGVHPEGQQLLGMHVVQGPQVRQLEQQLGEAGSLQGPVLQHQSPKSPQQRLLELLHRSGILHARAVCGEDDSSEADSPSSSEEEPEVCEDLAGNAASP
Description: Agonist activity at human THRalpha-LBD transfected in HEK293T cells co-transfected with pFR-Luc/pRL-SV40 assessed as transfection efficiency by measuring luciferase activity measured after 16 hrs by Gal4 hybrid reporter gene assay

[10] = biological target: T8, Retinoic acid receptor alpha (Homo sapiens, UniProt P10276)
T8 sequence (P10276 whole entry): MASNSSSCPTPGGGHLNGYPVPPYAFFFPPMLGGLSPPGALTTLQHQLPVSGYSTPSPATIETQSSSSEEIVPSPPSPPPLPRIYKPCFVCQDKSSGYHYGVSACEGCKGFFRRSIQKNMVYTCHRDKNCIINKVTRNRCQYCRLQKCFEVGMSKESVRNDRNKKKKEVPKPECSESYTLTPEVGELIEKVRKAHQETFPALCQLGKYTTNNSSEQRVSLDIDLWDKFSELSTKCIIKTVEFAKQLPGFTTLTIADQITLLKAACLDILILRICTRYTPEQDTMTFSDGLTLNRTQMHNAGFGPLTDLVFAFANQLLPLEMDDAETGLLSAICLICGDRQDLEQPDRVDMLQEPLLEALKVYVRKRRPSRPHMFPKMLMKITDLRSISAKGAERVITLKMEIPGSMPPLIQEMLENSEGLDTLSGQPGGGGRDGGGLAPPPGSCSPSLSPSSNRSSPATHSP
Description: Agonist activity at human RARalpha-LBD transfected in HEK293T cells co-transfected with pFR-Luc/pRL-SV40 assessed as transfection efficiency by measuring luciferase activity measured after 16 hrs by Gal4 hybrid reporter gene assay

T1 sequence (P22736 whole entry): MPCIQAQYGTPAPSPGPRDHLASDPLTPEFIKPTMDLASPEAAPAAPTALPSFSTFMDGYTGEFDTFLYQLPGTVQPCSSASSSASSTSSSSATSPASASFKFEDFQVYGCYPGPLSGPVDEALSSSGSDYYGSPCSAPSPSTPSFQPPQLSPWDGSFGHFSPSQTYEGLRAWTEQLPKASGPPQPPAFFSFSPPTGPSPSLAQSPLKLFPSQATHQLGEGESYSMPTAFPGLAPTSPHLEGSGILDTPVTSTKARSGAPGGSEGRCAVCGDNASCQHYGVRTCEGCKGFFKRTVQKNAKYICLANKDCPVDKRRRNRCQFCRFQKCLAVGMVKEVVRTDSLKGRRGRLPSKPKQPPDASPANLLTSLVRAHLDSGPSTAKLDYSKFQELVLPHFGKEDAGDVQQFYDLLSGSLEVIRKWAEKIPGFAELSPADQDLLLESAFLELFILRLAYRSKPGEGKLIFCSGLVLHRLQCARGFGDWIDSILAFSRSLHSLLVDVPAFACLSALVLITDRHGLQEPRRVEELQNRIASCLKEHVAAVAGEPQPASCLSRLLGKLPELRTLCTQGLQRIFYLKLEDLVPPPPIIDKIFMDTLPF
Chain of Dihydroorotate dehydrogenase (quinone), mitochondrial (Q63707 whole entry): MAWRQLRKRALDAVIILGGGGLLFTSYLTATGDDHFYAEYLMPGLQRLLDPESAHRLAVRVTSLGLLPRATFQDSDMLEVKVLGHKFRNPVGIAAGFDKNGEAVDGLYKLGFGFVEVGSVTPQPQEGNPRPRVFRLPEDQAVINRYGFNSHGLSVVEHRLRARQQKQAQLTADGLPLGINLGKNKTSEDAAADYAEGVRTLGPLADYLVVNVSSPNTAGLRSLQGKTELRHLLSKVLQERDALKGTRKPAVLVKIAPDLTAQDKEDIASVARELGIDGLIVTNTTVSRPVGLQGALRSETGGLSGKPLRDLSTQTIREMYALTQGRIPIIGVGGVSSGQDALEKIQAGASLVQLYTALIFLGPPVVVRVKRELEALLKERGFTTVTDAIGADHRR

Row | SMILES | AUC at 8 h (in vivo) | EC50 [1] | IC50 [2] | Cmax [3] | EC50 (Vitamin D3 receptor) | EC50 [4] | EC50 (Bile acid receptor) | EC50 [5] | EC50 [6] | EC50 [7] | EC50 [8] | EC50 [9] | EC50 [10]
1 | C#CCOc1cccc(-c2ccc(NC(=O)C3=C(C(=O)O)CCC3)c(F)c2)c1 | 290 µM·h | 1.4 µM | 6 µM | 56 µM |  |  |  |  |  |  |  |  | 
2 | COc1cccc(-c2ccc(NC(=O)C3=C(C(=O)O)CCC3)c(F)c2)c1 [VIDOFLUDIMUS] |  |  |  |  | > 10 µM | 2.9 µM | > 10 µM | 3.1 µM | > 10 µM | > 10 µM | > 10 µM | > 10 µM | > 10 µM
